Measured values published in US20120046331A1, “Antifungal Agents and Uses Thereof” (priority 2010, published 2012).
Values after ≈ are worked out from the molar mass of the structure shown. “Also recorded” adds a separate entry of the source.

Columns and labels:
T. rubrum = test: MIC testing, modified CLSI M38-A2 for dermatophytes (Example 2); format: cell-based, Trichophyton rubrum; conditions: Trichophyton rubrum
[1] = tested on: panel of clinical isolates of 5 common dermatophytic fungi; test: Checkerboard combination testing, whole panel (Example 1); format: cell-based; conditions: terbinafine alone; reason why synergy could not be determined
Method: This example describes the in vitro activity of combinations of compounds according to the present invention and antifungal agents against a collection of dermatophytic fungal pathogens. Antifungal susceptibility testing was adapted from the CLSI M38-A broth microdilution method for dermatophytes (NCCLS-M38-A2 2008). Combination testing was performed by checkerboard method (with compound 8 in combination with fluconazole, itraconazole or terbinafine). A total of 30 isolates of 5 different fungal species were tested in the combination test: 6 isolates each of Trichophyton tonsurans, Trichophyton rubrum, Epidermophyton floccosum, Trichophyton mentagrophytes and Microsporum canis. Clinical isolates were obtained by the Laboratory of Dr. M. Ghannoum at Case Western University.
Synergy was assessed using the fractional inhibitory concentration (FIC), an interaction coefficient, with the following definitions: […]

T. tonsurans = test: MIC testing, modified CLSI M38-A2 for dermatophytes (Example 2); format: cell-based; conditions: n = 5 strains
Method: (§1) MIC testing was performed according to the modification of the CLSI M38-A2 standard for dermatophytes developed at the Center (CLSI. Reference Method for Broth Dilution Antifungal Susceptibility Testing of Filamentous Fungi; Approved Standard-Second Edition. CLSI document M38-A2 [ISBN 1-56238-668-9]. CLSI, 940 West Valley Road, Suite 1400, Wayne, Pa. 19087-1898 USA, 2008; Ghannoum M A, et al. Intra- and Interlaboratory Study of a Method for Testing the Antifungal Susceptibilities of Dermatophytes. 2004 J Clin Microbiol 42:(7): 2977-2979). Compound 8 and fluconazole were tested in combination using a checkerboard microdilution method. The interaction between Compound 8 and fluconazole was determined by FIC Index, or Fractional Inhibitory Concentration Index, which assigns a numerical value to the interaction of the two antifungals.

T. mentagrophytes = test: as above; format: cell-based; conditions: n = 5 strains
Method: as §1

MIC50 (T. rubrum; lowest concentration to inhibit 50% of the strains tested, n = 20, read-out: MIC50): 16 ng/mL (≈ 0.0549 µM)
MIC90 (T. rubrum; n = 20 strains): 8000 ng/mL (≈ 27.5 µM)
MIC50 (T. tonsurans; Trichophyton tonsurans): 2 ng/mL
MIC90 (T. tonsurans; Trichophyton tonsurans): 2 ng/mL
MIC Range (T. tonsurans): 1 to 16 ng/mL
MIC50 (T. mentagrophytes; Trichophyton mentagrophytes): 8 ng/mL
MIC90 (T. mentagrophytes; Trichophyton mentagrophytes): 16 ng/mL
MIC Range (T. mentagrophytes): 4 to 16 ng/mL
Compound: CN(C/C=C/C#CC(C)(C)C)Cc1cccc2ccccc12 [Terbinafine, terbinafine]
Potency (MIC) of terbinafine, in words [1]: extremely low MIC; also recorded: † = synergy could not be determined because of the high potency (extremely low MIC) of terbinafine
